Results as given in patent USRE28744E, “Crystalline p-hydroxyampicillin and salts thereof” (priority 1968, dated 1976).
Converted amounts (≈) assume the structure as drawn. Blank lines part the entries; values can stand above or below the compound they belong to.

How the values were obtained:
Gram-negative bacteria = conditions: 100 μg./ml.
Method: (§1) Results were obtained by serial dilution in nutrient agar. The inoculum was one drop of an overnight broth culture, and M.I.C. values were read after 18 hours at 37°C.

E.Coli = test: in vitro antibacterial screening, M.I.C., E.Coli; format: cell-based; conditions: for MIC: Escherichia coli
From the text: (§2) The four resulting hydroxypenicillins were then submitted to in vitro antibacterial screening in comparison with the two epimers of α-aminobenzylpenicillin.

Proteus vulgaris K = test: serial dilution in nutrient agar, synergy M.I.C., Proteus vulgaris K; format: cell-based
Method: as §1

Shigella flexneri = test: in vitro antibacterial screening, M.I.C., Shigella flexneri; format: cell-based; conditions: for MIC: Shigella flexneri
From the text: as §2

Proteus morganii G = test: serial dilution in nutrient agar, synergy M.I.C., Proteus morganii G; format: cell-based
Method: as §1

Paracolon 232 = test: serial dilution in nutrient agar, synergy M.I.C., Paracolon 232; format: cell-based; conditions: in the presence of 100 μg./ml. Methicillin
Method: as §1

E. coli 37 = test: serial dilution in nutrient agar, synergy M.I.C., E. coli 37; format: cell-based; conditions: in the presence of 100 μg./ml. Nafcillin
Method: as §1

Klebsiella C 978 = test: serial dilution in nutrient agar, synergy M.I.C., Klebsiella C 978; format: cell-based
Method: as §1

[1] = absorption studies in human volunteers (oral); conditions: serum, 500 mg
Method: (§3) The two penicillins were then compared with ampicillin in absorption studies in human volunteers. Groups of fasting volunteers were each given 500 mg. of the appropriate penicillin by mouth in capsules, and blood samples were withdrawn at regular intervals and assayed biologically to determine the serum concentration of the penicillins. The urine was also collected over a 6 hour period and similarly assayed to determine the proportion of the dose excreted via the kidneys.

clinical = conditions: human, urine, po, 500 mg
Method: as §3

Salm. typhi = test: in vitro antibacterial screening, M.I.C., Salm. typhi; format: cell-based; conditions: for MIC: Salmonella enterica, TYPHI, read-out: M.I.C. Salm. typhi, in vitro; for M.I.C. Salm. typhi: in vitro
From the text: as §2

Proteus mirabilis = test: in vitro antibacterial screening, M.I.C., Proteus mirabilis; format: cell-based
From the text: as §2

Kleb. pneum = test: in vitro antibacterial screening, M.I.C., Kleb. pneum; format: cell-based
From the text: as §2

[2] = comparison within series; cited from earlier work
E. coli 2 = test: inhibition of E. coli 2; format: cell-based; conditions: Escherichia coli, product contaminated with approximately 5% of 6-aminopenicillanic acid, read-out: concentration inhibiting E. coli 2
Staph. Oxford = test: inhibition of Staph. Oxford; format: cell-based; conditions: product contaminated with approximately 5% of 6-aminopenicillanic acid; read-out: concentration inhibiting Staph. Oxford
[3] = in the presence of 100 μg./ml. Dicloxacillin
[4] = in the presence of 100 μg./ml. Flucloxacillin
[5] = in the presence of 100 μg./ml. Methicillin

SMILES: Cc1onc(-c2c(F)cccc2Cl)c1C(=O)N[C@@H]1C(=O)N2[C@@H]1SC(C)(C)[C@@H]2C(=O)O [flucloxacillin]
inhibition of the Gram-negative bacteria by the penicillinase-resistant penicillin by itself (Gram-negative bacteria): None of these penicillinase-resistant penicillins by itself inhibits the Gram-negative bacteria at 100 μg./ml.

SMILES: CC1(C)S[C@@H]2[C@H](NC(=O)[C@H](N)c3ccc(O)cc3)C(=O)N2[C@H]1C(=O)O [Example 3, 6-[(-)α-amino-p-hydroxyphenylacetamido]Penicillanic Acid]
MIC (E.Coli): 5 µg/mL (≈ 13.7 µM)
Minimum inhibitory concentration, Proteus vulgaris K (Proteus vulgaris K; None (alone), 18 hours at 37°C): 250 µg/mL
Minimum inhibitory concentration, Proteus vulgaris K (Proteus vulgaris K; [3]): 2.5 µg/mL
Minimum inhibitory concentration, Proteus vulgaris K (Proteus vulgaris K; [4]): 5.0 µg/mL
Minimum inhibitory concentration, Proteus vulgaris K (Proteus vulgaris K; [5]): 50 µg/mL
MIC (Shigella flexneri): 2.5 µg/mL (≈ 6.84 µM)
Minimum inhibitory concentration, Proteus morganii G (Proteus morganii G; None (alone), 18 hours at 37°C): 250 µg/mL
Minimum inhibitory concentration, Proteus morganii G (Proteus morganii G; [3]): 5.0 µg/mL
Minimum inhibitory concentration, Proteus morganii G (Proteus morganii G; [4]): 5.0 µg/mL
Minimum inhibitory concentration, Paracolon 232 (Paracolon 232): 2.5 µg/mL
Minimum inhibitory concentration, E. coli 37 (E. coli 37): 2.5 µg/mL
Minimum inhibitory concentration, Klebsiella C 978 (Klebsiella C 978; None (alone), 18 hours at 37°C): 250 µg/mL
Minimum inhibitory concentration, Klebsiella C 978 (Klebsiella C 978; in the presence of 100 μg./ml. Cloxacillin): 50 µg/mL
Minimum inhibitory concentration, Klebsiella C 978 (Klebsiella C 978; [3]): 50 µg/mL
Minimum inhibitory concentration, Klebsiella C 978 (Klebsiella C 978; [4]): 25 µg/mL
Minimum inhibitory concentration, Klebsiella C 978 (Klebsiella C 978; [5]): 50 µg/mL
Minimum inhibitory concentration, Klebsiella C 978 (Klebsiella C 978; in the presence of 100 μg./ml. Nafcillin): 50 µg/mL
concentration at 0.5 h [1]: 2900 ng/mL
concentration at 1 h [1]: 8250 ng/mL
concentration at 2 h [1]: 10800 ng/mL
concentration at 4 h [1]: 3100 ng/mL
concentration at 6 h [1]: 1130 ng/mL
dose excreted at 6 h (clinical): 74.5%

SMILES: CC1(C)S[C@@H]2[C@H](NC(=O)[C@H](N)c3ccccc3)C(=O)N2[C@H]1C(=O)O [Ampicillin, D(-)-epimer of α-aminobenzyl penicillin]
MIC (E.Coli): 5 µg/mL (≈ 14.3 µM)
MIC (Salm. typhi): 0.6 µg/mL (≈ 1.72 µM)
MIC (Proteus mirabilis; Proteus mirabilis): 1.25 µg/mL (≈ 3.58 µM)
MIC (Shigella flexneri): 12.5 µg/mL (≈ 35.8 µM)
dose excreted at 6 h (clinical): 42%
MIC (Kleb. pneum): 2.5 µg/mL (≈ 7.15 µM)

SMILES: Cc1onc(-c2c(Cl)cccc2Cl)c1C(=O)N[C@@H]1C(=O)N2[C@@H]1SC(C)(C)[C@@H]2C(=O)O [dicloxacillin]
inhibition of the Gram-negative bacteria by the penicillinase-resistant penicillin by itself (Gram-negative bacteria): None of these penicillinase-resistant penicillins by itself inhibits the Gram-negative bacteria at 100 μg./ml.
oral absorption of known penicillins (in words) [2]: better absorbed than cloxacillin

SMILES: CCOc1ccc2ccccc2c1C(=O)N[C@@H]1C(=O)N2[C@@H]1SC(C)(C)[C@@H]2C(=O)O [nafcillin]
inhibition of the Gram-negative bacteria by the penicillinase-resistant penicillin by itself (Gram-negative bacteria): None of these penicillinase-resistant penicillins by itself inhibits the Gram-negative bacteria at 100 μg./ml.

SMILES: CC1(C)S[C@@H]2C(NC(=O)C(N)c3cccc(O)c3)C(=O)N2[C@H]1C(=O)O (stereo partly drawn) [Example 7, 6[(-)α-amino-m-hydroxyphenylacetamido]penicillanic Acid]
M.I.C. E.Coli (E.Coli; listed as m OH -): 5 µg/mL
M.I.C. Salm. typhi (Salm. typhi; listed as m OH -): 1.25 µg/mL
M.I.C. Proteus mirabilis (Proteus mirabilis; listed as m OH -): 2.5 µg/mL
M.I.C. Shigella flexneri (Shigella flexneri; listed as m OH -): 2.5 µg/mL
concentration at 0.5 h [1]: 910 ng/mL
concentration at 1 h [1]: 2500 ng/mL
concentration at 2 h [1]: 2860 ng/mL
concentration at 4 h [1]: 1150 ng/mL
concentration at 6 h [1]: 440 ng/mL
dose excreted at 6 h (clinical): 31%
M.I.C. Kleb. pneum (Kleb. pneum; listed as m OH -): 1.25 µg/mL

MIC (E. coli 2): 5 µg/mL (≈ 10 µM)
MIC (Staph. Oxford): 0.1 µg/mL (≈ 0.2 µM)
SMILES: CC1(C)S[C@@H]2[C@H](NC(=O)[C@H](N)c3ccc(OC(=O)OCc4ccccc4)cc3)C(=O)N2[C@H]1C(=O)O [Example 12, 6-[(-)-α-amino-α-(p-benzyloxycarbonyloxyphenyl)-acetamido]penicillanic acid]

SMILES: CC1(C)S[C@@H]2C(NC(=O)C(N)c3cccc(O)c3)C(=O)N2[C@H]1C(=O)O (stereo partly drawn) [Example 8, 6[(+)α-amino-m-hydroxyphenylacetamido]penicillanic Acid]
M.I.C. E.Coli (E.Coli; listed as m OH +): 25 µg/mL
M.I.C. Salm. typhi (Salm. typhi; listed as m OH +): 12.5 µg/mL
M.I.C. Proteus mirabilis (Proteus mirabilis; listed as m OH +): 25 µg/mL
M.I.C. Shigella flexneri (Shigella flexneri; listed as m OH +): 25 µg/mL
M.I.C. Kleb. pneum (Kleb. pneum; listed as m OH +): 12.5 µg/mL

SMILES: CC1(C)S[C@@H]2[C@H](NC(=O)[C@@H](N)c3ccc(O)cc3)C(=O)N2[C@H]1C(=O)O [Example 4, 6[(+)α-amino-p-hydroxyphenylacetamido]penicillanic Acid]
MIC (E.Coli): 25 µg/mL (≈ 68.4 µM)

SMILES: CC1(C)S[C@@H]2[C@H](NC(=O)[C@@H](N)c3ccccc3)C(=O)N2[C@H]1C(=O)O [None +, reference compound]
MIC (E.Coli): 12.5 µg/mL (≈ 35.8 µM)
MIC (Salm. typhi): 2.5 µg/mL (≈ 7.15 µM)
MIC (Kleb. pneum): 5 µg/mL (≈ 14.3 µM)

SMILES: COc1cccc(OC)c1C(=O)N[C@@H]1C(=O)N2[C@@H]1SC(C)(C)[C@@H]2C(=O)O [methicillin]
inhibition of the Gram-negative bacteria by the penicillinase-resistant penicillin by itself (Gram-negative bacteria): None of these penicillinase-resistant penicillins by itself inhibits the Gram-negative bacteria at 100 μg./ml.

SMILES: Cc1onc(-c2ccccc2Cl)c1C(=O)N[C@@H]1C(=O)N2[C@@H]1SC(C)(C)[C@@H]2C(=O)O [cloxacillin]
inhibition of the Gram-negative bacteria by the penicillinase-resistant penicillin by itself (Gram-negative bacteria): None of these penicillinase-resistant penicillins by itself inhibits the Gram-negative bacteria at 100 μg./ml.
